Test results from US7595401B2, “Therapeutic compounds and their use in cancer” (Myriad Pharmaceuticals, Inc., priority 2006, dated 2009).

test system: purified human Hsp90; assay: Binding Assay: fluorescence polarization with BODIPY-labeled geldanamycin; conditions: 5 μM compound, BODIPY-GM 10 nM, Hsp90 30 nM
In short: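 Compounds in 2% DMSO final compete with 10 nM BODIPY-GM for 30 nM purified human Hsp90, incubated overnight at room temperature in pH 7.3 HEPES buffer containing Na2MoO4 and DTT. Polarization (mP, ex/em 485/530) normalized to DMSO gives percent inhibition; autofluorescence-confounded data excluded.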

Compound | % Inhibition at 5 μM Compound Concentration
COc1ccc(OC)c(Sc2nc3c(N)ncn(CCc4ccc(Cl)cc4Cl)c-3n2)c1 [Example 28, 3-[2-(2,4-dichloro-phenyl)-ethyl]-8-(2,5-dimethoxy-phenyl-sulfanyl)-3H-purin-6-ylamine] | 0%
COc1ccc(OC)c(Sc2nc3c(N)ncn(CCc4cc(F)cc(F)c4)c-3n2)c1 [Example 144, 3-[2-(3,5-difluoro-phenyl)-ethyl]-8-(2,5-dimethoxy-phenylsulfanyl)-3H-purin-6-ylamine] | 0%
CS(=O)(=O)NC(CCn1cnc(N)c2nc(Sc3cc4c(cc3Br)OCO4)nc1-2)C1CC1 (stereo not shown) [Example 675, N-(3-{6-Amino-8-[(6-bromo-1,3-benzodioxol-5-yl)thio]-3H-purin-3-yl}-1-cyclopropylpropyl)methanesulfonamide] | 49%
COc1cccc(CCn2cnc(N)c3nc(Sc4cc5c(cc4Br)OCO5)nc2-3)c1 [Example 309, 8-[(6-Bromo-1,3-benzodioxol-5-yl)thio]-3-[2-(3-methoxyphenyl)ethyl]-3H-purin-6-amine] | 25.0%
CCC(CC)N1CCN(CCn2cnc(N)c3nc(Sc4cc(OC)ccc4OC)nc2-3)CC1 [Example 628, 8-[(2,5-Dimethoxyphenyl)thio]-3-{2-[4-(1-ethylpropyl)piperazin-1-yl]ethyl}-3 H-purin-6-amine] | 23.00%
CC(C)(C)OC(=O)N1CCC(=CCn2cnc(N)c3nc(Sc4cc5c(cc4Br)OCO5)nc2-3)CC1 [Example 389, tert-Butyl 4-(2-{6-amino-8-[(6-bromo-1,3-benzodioxol-5-yl)thio]-3H-purin-3-yl}ethylidene)piperidine-1-carboxylate] | 38%
CC(C)(C)OC(=O)N1CCCC[C@@H]1CCn1cnc(N)c2nc(Sc3cc4c(cc3Br)OCO4)nc1-2 [Example 395, tert-Butyl (2R)-2-(2-{6-amino-8-[(6-bromo-1,3-benzodioxol-5-yl)thio]-3H-purin-3-yl}ethyl)piperidine-1-carboxylate] | 0%
COc1ccc(C#N)cc1Sc1nc2c(N)ncn(CCc3ccccc3Cl)c-2n1 [Example 307, 3-({6-Amino-3-[2-(2-chlorophenyl)ethyl]-3H-purin-8-yl}thio)-4-methoxybenzonitrile] | 40.0%
COc1ccc(OC)c(Sc2nc3c(N)ncn(CC(O)c4ccc(Cl)cc4Cl)c-3n2)c1 (stereo not shown) [Example 108, 2-[6-amino-8-(2,5-dimethoxy-phenylsulfanyl)-purin-3-yl]-1-(2,4-dichloro-phenyl)ethanol] | 30%
COc1ccc(OC)c(Sc2nc3c(N)ncn(CCC4CCCCC4)c-3n2)c1 [Example 170, 3-(2-cyclohexyl-ethyl)-8-(2,5-dimethoxy-phenylsulfanyl)-3H-purin-6-ylamine] | 3%

same assay, conditions: BODIPY-GM 10 nM, Hsp90 30 nM

Compound | IC50
CCC(Cn1c(Sc2cc(OC)ccc2OC)nc2c(N)ncnc21)c1ccccc1 (stereo not shown) [Example 285, 8-[(2,5-Dimethoxyphenyl)thio]-9-(2-phenylbutyl)-9H-purin-6-amine] | 1.3 µM
COC(=O)[C@H](CCSC)NC(=O)N1CCCC(CCn2c(Sc3cc4c(cc3Br)OCO4)nc3c(N)ncnc32)C1 (stereo partly drawn) [Example 507, Methyl N-{[3-(2-{6-amino-8-[(6-bromo-1,3-benzodioxol-5-yl)thio]-9 H-purin-9-yl}ethyl)piperidin-1-yl]carbonyl}-L-methioninate] | 0.405 µM
COc1ccc(I)c(Sc2nc3c(N)ncnc3n2CCc2ccccc2)c1 [Example 322, 8-[(2-Iodo-5-methoxyphenyl)thio]-9-(2-phenylethyl)-9H-purin-6-amine] | 0.1 µM
Nc1ncn(CCc2c(F)c(F)c(F)c(F)c2F)c2nc(Sc3cc4c(cc3Br)OCO4)nc1-2 [Example 42, 8-(6-bromo-benzo[1,3]dioxol-5-ylsulfanyl)-3-(2-pentafluorophenyl-ethyl)-3H-purin-6-ylamine] | > 5 µM
CC(=O)N1CCC(CCn2c(Sc3nc4c(Cl)cccc4s3)nc3c(N)ncnc32)CC1 [Example 653, 9-[2-(1-Acetylpiperidin-4-yl)ethyl]-8-[(4-chloro-1,3-benzothiazol-2-yl)thio]-9H-purin-6-amine] | > 2 µM
Nc1ncnc2c1nc(Sc1cc3c(cc1Br)OCO3)n2CCc1ccccc1[N+](=O)[O-] [Example 207, 8-(6-Bromo-benzo[1,3]dioxol-5-ylsulfanyl)-9-[2-(2-nitro-phenyl)-ethyl]-9H-purin-6-ylamine] | 0.038 µM
Nc1ncnc2c1nc(Sc1cc3c(cc1Br)OCO3)n2CCC1CNC1 [Example 483, 9-(2-Azetidin-3-ylethyl)-8-[(6-bromo-1,3-benzodioxol-5-yl)thio]-9 H-purin-6-amine] | 0.184 µM
Nc1ncnc2c1nc(Sc1cc(Cl)c(Cl)cc1Cl)n2CCc1ccccc1Cl [Example 262, 9-[2-(2-Chlorophenyl)ethyl]-8-[(2,4,5-trichlorophenyl)thio]-9H-purin-6-amine] | > 25 µM
CS(=O)(=O)N1CCCC(CCn2c(Sc3cc4c(cc3Br)OCO4)nc3c(N)ncnc32)C1 (stereo not shown) [Example 369, 8-[(6-Bromo-1,3-benzodioxol-5-yl)thio]-9-{2-[1-(methylsulfonyl)piperidin-3-yl]ethyl}-9H-purin-6-amine] | 0.035 µM
COc1ccc(OC)c(Sc2nc3c(N)ncnc3n2CCc2ccc(N(C)C)cc2)c1 [Example 185, 8-(2,5-Dimethoxy-phenylsulfanyl)-9-[2-(4-dimethylamino-phenyl)-ethyl]-9H-purin-6-ylamine] | > 2.5 µM
Nc1ncnc2c1nc(Sc1cc3c(cc1Br)OCO3)n2CCN1CCCC1=O [Example 584, 1-(2-{6-Amino-8-[(6-bromo-1,3-benzodioxol-5-yl)thio]-9 H-purin-9-yl}ethyl)pyrrolidin-2-one] | 1.4 µM
Nc1ncnc2c1nc(Sc1ccc3occc3c1)n2CCC1CCN(C=O)CC1 [Example 539, 4-{2-[6-Amino-8-(1-benzofuran-5-ylthio)-9 H-purin-9-yl]ethyl}piperidine-1-carbaldehyde] | > 5 µM
Nc1ncnc2c1nc(Sc1cc3c(cc1Br)OCCO3)n2CCC1CCN(C=O)CC1 [Example 545, 4-(2-{6-Amino-8-[(7-bromo-2,3-dihydro-1,4-benzodioxin-6-yl)thio]-9 H-purin-9-yl}ethyl)piperidine-1-carbaldehyde] | 0.05 µM
CC1(C)CC(CCn2c(Sc3cc4c(cc3Br)OCO4)nc3c(N)ncnc32)CC(C)(C)N1 [Example 354, 8-[(6-Bromo-1,3-benzodioxol-5-yl)thio]-9-[2-(2,2,6,6-tetramethylpiperidin-4-yl)ethyl]-9H-purin-6-amine] | 0.25 µM
CCC(CC)N1CCN(CCn2c(Sc3cc(OC)ccc3OC)nc3c(N)ncnc32)CC1 [Example 627, 8-[(2,5-Dimethoxyphenyl)thio]-9-{2-[4-(1-ethylpropyl)piperazin-1-yl]ethyl}-9 H-purin-6-amine] | > 8 µM
COc1ccc(Sc2nc3c(N)ncnc3n2CCC2CCN(C(C)=O)CC2)cc1F [Example 567, 9-[2-(1-Acetylpiperidin-4-yl)ethyl]-8-[(3-fluoro-4-methoxyphenyl)thio]-9 H-purin-6-amine] | > 5 µM
COc1ccc(C)cc1Sc1nc2c(N)ncnc2n1CCc1ccccc1Cl [Example 324, 9-[2-(2-Chlorophenyl)ethyl]-8-[(2-methoxy-5-methylphenyl)thio]-9H-purin-6-amine] | 2.8 µM
CC(C)[C@H](NC(=O)OC(C)(C)C)C(=O)N1CCC(CCn2c(Sc3cc4c(cc3Br)OCO4)nc3c(N)ncnc32)CC1 [Example 713, tert-Butyl((1S)-1-{[4-(2-{6-amino-8-[(6-bromo-1,3-benzodioxol-5-yl)thio]-9H-purin-9-yl}ethyl)piperidin-1-yl]carbonyl}-2-methylpropyl)carbamate] | 0.495 µM
COc1ccc(OC)c(Sc2nc3c(N)ncnc3n2CCc2ccc(-c3ccccc3)cc2)c1 [Example 181, 9-(2-Biphenyl-4-yl-ethyl)-8-(2,5-dimethoxy-phenylsulfanyl)-9H-purin-6-ylamine] | > 25 µM
Nc1ncn(CCc2ccc(F)cc2)c2nc(Sc3ccc4c(c3)OCO4)nc1-2 [Example 12, 8-(benzo[1,3]dioxol-5-ylsulfanyl)-3-[2-(4-fluoro-phenyl)-ethyl]-3H-purin-6-ylamine] | > 10 µM
COc1ccc(OC)c(Sc2nc3c(N)ncnc3n2CCc2cc(F)cc(F)c2)c1 [Example 143, 9-[2-(3,5-Difluoro-phenyl)-ethyl]-8-(2,5-dimethoxy-phenylsulfanyl)-9H-purin-6-ylamine] | > 3 µM
COc1ccc(OC)c(Sc2nc3c(N)ncnc3n2CCc2cccc(F)c2F)c1 [Example 145, 9-[2-(2,3-Difluoro-phenyl)-ethyl]-8-(2,5-dimethoxy-phenylsulfanyl)-9H-purin-6-ylamine] | > 3 µM
COc1ccc(OC)c(Sc2nc3c(N)ncnc3n2CCc2ccc(C(C)=O)cc2)c1 [Example 63, 1-(4-{2-[6-Amino-8-(2,5-dimethoxy-phenylsulfanyl)-purin-9-yl]-ethyl}-phenyl)-ethanone] | > 5 µM
CC(C)N1CCCCC1CCn1c(Sc2cc3c(cc2Br)OCO3)nc2c(N)ncnc21 (stereo not shown) [Example 445, 8-[(6-Bromo-1,3-benzodioxol-5-yl)thio]-9-[2-(1-isopropylpiperidin-2-yl)ethyl]-9H-purin-6-amine] | 0.305 µM
CCOc1cc(CCn2c(Sc3cc(OC)ccc3OC)nc3c(N)ncnc32)ccc1OC [Example 111, 8-(2,5-Dimethoxy-phenylsulfanyl)-9-[2-(3-ethoxy-4-methoxy-phenyl)-ethyl]-9H-purin-6-ylamine] | 10 µM
COc1ccc(OC)c(Sc2nc3c(N)ncnc3n2CCc2cccc(C(F)(F)F)c2)c1 [Example 79, 8-(2,5-Dimethoxy-phenylsulfanyl)-9-[2-(3-trifluoromethyl-phenyl)-ethyl]-9H-purin-6-ylamine] | 0.3 µM
COc1cccc(CCn2c(Sc3cc(OC)ccc3OC)nc3c(N)ncnc32)c1 [Example 35, 8-(2,5-Dimethoxy-phenylsulfanyl)-9-[2-(3-methoxy-phenyl)-ethyl]-9H-purin-6-ylamine] | 0.8 µM
